# Test results taken from a melting point compilation (Tetko et al.; mined from patent text by program, amines drawn as free bases though some values may be those of a salt).
row,melting point,Structure (SMILES)
1,192 to 193 °C,CC(C)n1c(=O)[nH]c2cc(-c3ncc(C(F)(F)F)cc3Cl)ccc21
2,276 to 278 °C,Cc1ccc(-c2csc(C(=O)Nc3nnn[nH]3)n2)cc1
3,77 to 80 °C,O=Cc1ccc2c(c1)CC(Cc1ccccc1)O2 (centres undefined)
4,246 to 248 °C,COc1cccc([C@H]2O[C@H](CC(=O)Nc3c(C)c(C)c4oc(C(=O)O)cc4c3C)C(=O)N(CC(C)(C)CO)c3ccc(Cl)cc32)c1OC
5,98 °C,COc1ccc(OC)c(C(=O)c2cccc([N+](=O)[O-])c2)c1
6,66 to 69 °C,O=C1OCC(c2ccc(Cl)cc2)C1CSCc1ccccc1 (centres undefined)
7,168 to 169 °C,COCOc1cc(F)ccc1-c1cc(-c2cccc(NC(=O)CN(C)C)c2)c(C#N)c(NC(=O)c2ccco2)n1
8,302 to 303 °C,O=[N+]([O-])c1cnn2c(-c3cccnc3)ccnc12
9,189 to 191 °C,O=C(Nc1cccc2c1C(=O)c1c-2n[nH]c1-c1ccc(C(=O)NN2CCCCC2)s1)NN1CCOCC1
10,80 to 83 °C,Oc1ccc(Nc2nc(NCc3ccco3)nc(Oc3ccc(O)cc3)n2)cc1
11,216 to 217 °C,O=c1cc(-c2ccc(F)cc2)oc(N2CCOCC2)c1
12,105 to 106 °C,OCCOCC(O)c1ccc2ccccc2c1 (centres undefined)
13,76 to 78 °C,CCOC(=O)C1=C(C)NC(C)=C(C(=O)OCCN2CCN(C(c3ccccc3)c3ccccc3)CC2)C1c1ccccc1Cl (centres undefined)
14,68 to 70 °C,CC(C)(C)OC(=O)N[C@@H](CCCCN=C=O)C(=O)N1CC(F)(F)C(F)(F)C1
15,217 to 225 °C,N#Cc1ccc2ccc(=O)oc2c1
16,286 to 289 °C,Cc1c(-c2ccccc2)sc2c1c(=O)c(C(=O)O)cn2Cc1c(F)cccc1F
17,166 to 168 °C,CS(=O)(=O)Nc1c(C(=O)c2ccccc2)[nH]c2cc(F)ccc12
18,154 to 155 °C,O=C1CCCN1CCc1c2ccccc2n2c1[nH]c(=O)c1ccccc12
19,177 °C,O=C(/C=C/c1ccc(C(=O)O)s1)NOC1CCCCO1 (centres undefined)
20,202 to 203 °C,O=C(O)c1ccc(OCCCCn2c(-c3ccccc3)nc(-c3ccccc3)c2-c2ccccc2)cc1
21,158 to 159 °C,COC(=O)COc1ccc(C(=O)NN(C)C(=O)OC(C)(C)C)cc1
22,151 to 152 °C,CCOC(=O)c1csc(-c2ccc3c(=O)n(CC(C)C)c(CNC(=O)OCC4c5ccccc5-c5ccccc54)c(-c4ccccc4)c3c2)n1

row,melting point,Structure (SMILES)
1,122 to 124 °C,Nc1cc(Oc2ccccc2)c([N+](=O)[O-])cc1Cl
2,281 to 282 °C,CC(C)(C)c1ccc(C(=O)Nc2cn3nc(-n4cnc(Cl)c4Cl)ccc3n2)cc1
3,82 to 83 °C,C=C(Cc1ccccc1C)C(=O)O
4,261 to 263 °C,CC(=O)N1CCN(c2cc3c(c(C)c2F)c(=O)c(C(=O)O)cn3C2CC2)CC1
5,111 to 113 °C,COc1ncnc2cc(Br)sc12
6,194 to 196 °C,CCCNC(=O)c1cnc2cc(C)ccn2c1=O
7,54 to 55 °C,COCOc1cc(C(=O)OC)[nH]n1
8,70 to 71 °C,CCOC(=O)CCCCCCCCCCCNC(=O)c1cc(OCc2ccccc2)ccc1OCc1ccccc1
9,112 to 125 °C,CCC1(CC)COC(c2cccc(NC(=O)NC)c2)OC1
10,145 to 147 °C,CCC(C)(CC)c1ccc(NC(=O)c2c(OC)cccc2OC)nn1
11,352 to 355 °C,O=C(O)c1ccc2c(c1)S(=O)(=O)c1ccc(Cl)cc1C2=O
12,167 to 170 °C,CC(C)(C)CN1c2ccccc2C(C)(C)C12C=Nc1c(ccc3ccccc13)O2 (centres undefined)
13,176 to 177 °C,CCOC(=O)c1nnc(-c2cc3cccc(N(C)S(=O)(=O)c4cccs4)c3[nH]2)s1
14,179 to 180 °C,Fc1ccccc1-c1c(OCc2ncnn2CC(F)F)nn2c(-c3ccccc3F)nncc12
15,190 to 192 °C,Cc1nc(Cl)c2c(n1)CN=C(c1ccccc1)c1cc(Cl)ccc1-2
16,210 °C,CCCCn1c(=S)sc2c(=N)n(NC(=O)c3ccco3)cnc21
17,> 300 °C,CN1CCN(c2c(Cl)cc3c(=O)c(C(=O)O)cn(C4CC4)c3c2Cl)CC1
18,38 to 39 °C,CCOC(=O)CCc1ccc(OCCOC)cc1OCc1ccccc1
19,113 to 114 °C,CC[C@H](C)C(OCc1ccccc1F)[C@H]1[C@H]([N+](=O)[O-])[C@H](c2ccsc2)N[C@@H]1C(=O)NCCC(=O)O (some centres undefined)
20,139 to 140 °C,CC(C)(C)c1nc(Cl)c2ccccc2c1-c1ccccc1
21,162 to 165 °C,CC1(C)Oc2cc(Br)sc2C(N2CCCC2=O)C1O (centres undefined)
22,159 to 160 °C,COc1ccc(C2(C)C(=O)c3c(Cl)cc(Cl)cc3N(Cc3ccccc3)C2=O)cc1 (centres undefined)

row,melting point,Structure (SMILES)
1,252 to 254 °C,CNc1nc(N)nc2c1nnn2Cc1ccccc1F
2,127 °C,COC(=O)CCC(NC(=O)Nc1cccc(C)c1)C(=O)O (racemic)
3,199 to 201 °C,CCCc1cc(C(=O)NCCC(=O)O)ccc1OC(C(=O)NS(=O)(=O)c1ccc(C(C)C)cc1)c1ccc2c(c1)OCO2 (centres undefined)
4,236 to 238 °C,CC(O)CN(C)c1nnc2c3ccc(Cl)cc3c(-c3ccccc3)nn12 (centres undefined)
5,268 to 269 °C,CC(=O)N[C@H]1CC[C@H](c2ccc(S(N)(=O)=O)cc2)CC1
6,116 to 117 °C,CCOC(=O)c1nc(C=Cc2cccc(Cl)c2)oc1C
7,191 to 193 °C,Cc1cc2c(cc1F)c(C#N)c(-c1ccc(S(=O)(=O)N[C@H](C)C(F)(F)F)cn1)n2C1CCCC1
8,170 to 171 °C,CC(NC(=O)OCc1ccccc1)C(=O)N1CC(=O)NC1(C)C (centres undefined)
9,399 to 401 °C,O=C(O)c1ccc2c(c1)S(=O)(=O)c1cc(C(=O)O)ccc1O2
10,126 to 128 °C,Cc1onc(-c2ccccc2)c1COc1ccc(-c2cc(O)c(SCCc3ccccc3)c(=O)o2)cc1
11,116 to 118 °C,Nc1ncc2ncn(CCC(CO)COC(=O)c3ccccc3)c2n1 (centres undefined)
12,219 to 220 °C,Cc1cc2[nH]c(=O)n(C3CCN(CCCN(c4ccc(F)cc4)c4ccc(F)cc4)CC3)c2cc1C
13,156 to 158 °C,CC(=O)c1cc(C(N)=O)cs1
14,82 to 83 °C,O=C1NCC(CCc2ccccc2)O1 (centres undefined)
15,133 to 135 °C,CC(=C(c1ccc(N(C)C)cc1)c1ccc(N(C)C)cc1)P(C(C)(C)C)C(C)(C)C
16,178 °C,Nc1ccc2ccc(Oc3cccnc3)nc2n1
17,298 °C,CSc1ccc(C(=O)NN=C2C(=O)Nc3ccc(I)cc32)cc1
18,250 °C,O=C(N[C@H]1CC[C@H](CCN2CCN(c3nccc4c3OCC4)CC2)CC1)C1(O)CCC1
19,74 to 75 °C,O=C(Nc1cccnc1)N1CCN(c2nc(-c3ccccc3)cs2)CC1
20,166 °C,CCOC(=O)c1c(OC(=O)C=C(C)C)c(CC)c(C)[nH]c1=O
21,190 to 191 °C,COc1cc(COc2nn(-c3ccccc3)cc2C(N)=O)ccc1OCc1nc(-c2ccccc2)oc1C

row,Structure (SMILES),melting point
1,O=C1Nc2ccccc2N2CCN(CCc3ccccn3)CC12 (centres undefined),167 to 169 °C
2,CCc1cc2c(s1)-n1c(C3CCCCC3)nnc1C(NC(=O)Nc1ccc(OC)cc1)N=C2c1ccccc1Cl (centres undefined),268 to 269 °C
3,O=[N+]([O-])c1ccc2c(c1)C(c1ccccc1)=NCC(OP(=O)(N1CCOCC1)N1CCOCC1)=N2,208 to 209 °C
4,COc1cc(OC)c(CNCCc2ccc(O)cc2)cc1O,170 to 173 °C
